Experimental data from patent US8877946B2, “Benzylidene-indolinone compounds and their medical use” (National University of Singapore, priority 2011, dated 2014).

system: HuH7 cells; experiment: MTT antiproliferative (growth inhibition) assay on HuH7 cells; type: cell-based, human; conditions: Homo sapiens, Huh-7, MTT, 72 h incubation, mean and SD of 3 or more independent determinations (Tables 1-8), read-out: IC 50
Excerpt: MTT was purchased from DUCHEFA Biochemie ([…]). Sunitinib, and sodium dodecyl sulfate, bovine serum albuminwere obtained from Sigma Aldrich (Singapore). Sorafenib was purchase from Ontario Chem. Fetal bovine serum (FBS) was obtained from Invitrogen. Human hepatocellular carcinoma cells (HuH-7 and Hep G2), and human diploid fibroblast strain (IMR 90). HuH7 was obtained as gifts from Dr Ho Han Kiat, Department of Pharmacy, NUS. IMR90 and Hep G2 were purchased from American Type Culture Collection (ATCC). HuH-7 cells were cultured in DMEM (Dulbecco's Modified Eagle Medium, high glucose) with 10% v/v fetal bovine serum (FBS), 100 mg/L penicillin G and 100 mg/L streptomycin. IMR 90 cell were cultured in EMEM (Eagle's Minimum Essential Medium), with 10% v/v FBS and 100 mg/L penicillin G and 100 mg/L streptomycin. The cells were sub-cultured when HuH7 or Hep G2 reached a density of 70-80×10^5 cell/T75 flask, and IMR 90 reached 20×10^5 cell/T75 flask. Cells were used within 2-10 passages for viability experiments.
The anti-proliferative activity of the test compounds were determined by the MTT assay. An aliquot (200 μL, 3×10^4 cells/mL for HuH7, 3.75×10^4 cells/mL for Hep G2, and 2×10^4 cells/mL for IMR 90) of medium was added to each well of the microtitre plate. […] The existing medium was removed from each well and replaced by fresh medium (200 μL) containing a known concentration of test compound. The final concentration of DMSO in each well was maintained at 0.5% v/v. (1% v/v was also utilized if the compounds were not soluble) The test compounds were incubated with the cells for another 72 h at 37 deg C., 5% CO2. The medium was then removed from the well and replaced with FBS free medium (200 μL) and MTT (50 μL of 2 mg/mL solution in phosphate buffer saline, pH 7.4). The phosphate buffer saline comprises 10 mM of potassium phosphate and 137 mM sodium chloride. After incubation (3 h) at 37 deg C., 5% CO2, the supernatant was removed and a solution of 200 μL DMSO and 25 μL Sorenson buffer (0.1 M glycine, 0.1 M sodium chloride, adjusted to pH 10.5 with 0.1 M sodium hydroxide) was added to dissolve the formazan crystals in each well. Vehicle control were cells grown in 1% v/v DMSO/Medium for 72 h, 37 deg C., 5% CO2 while blank controls were wells that contained only 200 μL DMSO and 25 μL Sorenson buffer. Absorbances were measured at 570 nm on a microplate reader (Tecan, Infinite 200). The viability of cells at a given concentration of test compound was determined from the expression:
[formula] where abs_compound=absorbance of wells containing cells and test compound, abs_vehicle (Not the same as above. Change to abs_vehicle)=absorbance of vehicle control and abs_blank=absorbance of blank control.
Each concentration of test compound was evaluated at least 3 times on separate occasions, and two different stock solution were used. The IC50 value (concentration that inhibited 50% of cell growth) was determined from the sigmoidal curve obtained by plotting percentage viability versus logarithmic concentration of test compound using GraphPad Prism 5 (San Diego, USA).

Compound | IC50
O=C1Nc2cc(Cl)ccc2C1=Cc1ccc(OC(F)(F)F)cc1 [Compound 1-15, (E)-6-Chloro-3-(4-trifluoromethoxyl-benzylidene)-1,3-dihydro-indol-20-one] | 10.1 ± 1.73 µM
O=C1Nc2cc(Cl)ccc2/C1=C\c1ccccc1 [Compound 1-1, (E)-3-Benzylidene-6-chloro-1,3-dihydro-indol-2-one] | 17.5 ± 3.54 µM
O=C1Nc2ccc(Cl)cc2/C1=C\c1ccc(C(F)(F)F)cc1 [Compound 2-8, (E)-5-Chloro-3-(4-trifluoromethylbenzylidene)-1,3-dihydro-indol-2-one] | 7.92 ± 1.45 µM
O=C1Nc2ccc(F)cc2/C1=C\c1ccccc1C(F)(F)F [Compound 4-9, (E)-5-Fluoro-3-(2-trifluoromethyl-benzylidene)-1,3-dihydro-indol-2-one] | > 30 µM
O=C1Nc2cc(Cl)ccc2C1=Cc1ccc(F)c(F)c1 [Compound 1-12, (E)-6-Chloro-3-(3,4-difluoro-benzylidene) 1,3-dihydro-indolin-2-one] | 16.7 ± 3.4 µM
COc1cccc(/C=C2/C(=O)Nc3ccc(F)cc32)c1 [Compound 4-8, (E)-5-Fluoro-3-(3-methoxy-benzylidene)-1,3-dihydro-indol-2-one] | 16.4 ± 4.15 µM
O=C1Nc2cc(F)ccc2/C1=C\c1cccc(OC(F)(F)F)c1 [Compound 3-8, (E)-6-Fluoro-3-(3-trifluoromethoxyl-benzylidene)-1,3-dihydro-indol-2-one] | 7.48 ± 0.2 µM
CS(=O)(=O)c1cccc(/C=C2/C(=O)Nc3ccc(F)cc32)c1 [Compound 4-14, (E)-5-Fluoro-3-(3-methanesulfonyl-benzylidene)-1,3-dihydro-indol-2-one] | 5.19 ± 0.63 µM
O=C1Nc2ccc(F)cc2/C1=C\c1ccc(F)cc1 [Compound 4-4, (E)-5-Fluoro-3-(4-fluoro-benzylidene)-1,3-dihydro-indol-2-one] | 13.2 ± 0.42 µM
O=C1Nc2ccc(Cl)cc2/C1=C\c1ccc(F)cc1 [Compound 2-4, (E)-5-Chloro-3-(4-fluoro-benzylidene)-1,3-dihydro-indol-2-one] | 12.7 ± 2.82 µM
O=C1Nc2cc(Cl)ccc2/C1=C\c1cccc(F)c1 [Compound 1-3, (E)-6-Chloro-3-(3-fluoro-benzylidene)-1,3-dihydro-indol-2-one] | 10 ± 0.87 µM
O=C1Nc2ccc(Cl)cc2/C1=C\c1ccccc1 [Compound 2-1, (E)-3-Benzylidene-5-chloro-1,3-dihydro-indol-2-one] | 21.3 ± 2.22 µM
O=C1Nc2ccc(F)cc2/C1=C\c1ccccc1 [Compound 4-1, (E)-3-Benzylidene-5-fluoro-1,3-dihydro-indol-2-one] | 21.4 ± 1.73 µM
NS(=O)(=O)c1cccc(C=C2C(=O)Nc3ccc(Cl)cc32)c1 [Compound 2-12, E/Z 3-(5-Chloro-2-oxo-1,2-dihydro-indol-3-ylidenemethyl)-benzenesulfonamide] | 9.66 ± 1.59 µM
COc1ccc2c(c1)NC(=O)/C2=C/c1ccccc1 [Compound 5-1, (E)-3-Benzylidene-6-methoxy-1,3-dihydro-indol-2-one] | 0.94 ± 0.19 µM
O=C1Nc2ccc(F)cc2/C1=C\c1cccc(F)c1 [Compound 4-3, (E)-5-Fluoro-3-(3-fluoro-benzylidene)-1,3-dihydro-indol-2-one] | 13.3 ± 2.31 µM
COc1ccccc1/C=C1/C(=O)Nc2cc(Cl)ccc21 [Compound 1-6, (E)-6-Chloro-3-(2-methoxy-benzylidene)-1,3-dihydro-indol-2-one] | > 30 µM
COc1cccc(C=C2C(=O)Nc3ccc(Cl)cc32)c1 [Compound 2-5, (E)-5-Chloro-3-(3-methoxybenzylidene)-dihydro-indol-2-one] | > 30 µM
CS(=O)(=O)c1cccc(/C=C2/C(=O)Nc3cc(F)ccc32)c1 [Compound 3-9, (E)-6-Fluoro-3-(3-methanesulfonyl-benzylidene)-1,3-dihydro-indol-2-one] | 12.7 ± 1.54 µM
O=C1Nc2cc(Cl)ccc2/C1=C\c1ccccc1C(F)(F)F [Compound 1-9, (E)-6-Chloro-3-(2-trifluoromethyl-benzylidene)-1,3-dihydro-indol-2-one] | 24.1 ± 5.29 µM
COc1ccc2c(c1)NC(=O)/C2=C/c1cccc(C(F)(F)F)c1 [Compound 5-6, (E)-6-Methoxy-3-(3-trifluoromethyl-benzylidene)-1,3-dihydro-indol-2-one, reference compound] | 1.2 ± 0.05 µM
CNS(=O)(=O)c1cccc(/C=C2/C(=O)Nc3ccc(Cl)cc32)c1 [Compound 2-14, (E)-3-(5-Chloro-2-oxo-1,2-dihydro-indol-3-ylidenemethyl)-N-methyl-benzenesulphonamide] | 3.13 ± 0.07 µM
O=C1Nc2ccc(F)cc2/C1=C\c1ccccc1F [Compound 4-2, (E)-5-Fluoro-3-(2-fluoro-benzylidene)-1,3-dihydro-indol-2-one] | > 30 µM
O=C1Nc2ccc(Cl)cc2/C1=C\c1cccc(F)c1 [Compound 2-3, (E)-5-Chloro-3-(3-fluoro-benzylidene)-1,3-dihydro-indol-2-one] | 15.1 ± 2.91 µM
O=C1Nc2cc(Cl)ccc2/C1=C\c1cccc(OC(F)(F)F)c1 [Compound 1-14, (E)-6-Chloro-3-(3-trifluoromethoxyl-benzylidene)-1,3-dihydro-indol-2-one] | 5.06 ± 0.74 µM
COc1ccc2c(c1)NC(=O)/C2=C/c1cccc(F)c1 [Compound 5-3, (E)-3-(3-Fluoro-benzylidene)-6-methoxy-1,3-dihydro-indol-2-one] | 0.71 ± 0.07 µM
N#Cc1cccc(/C=C2/C(=O)Nc3ccc(Cl)cc32)c1 [Compound 2-13, (E) 3-(5-Chloro-2-oxo-1,2-dihydro-indol-3-ylidenemethyl)-benzonitrile] | 10.4 ± 1.99 µM
CS(=O)(=O)c1cccc(/C=C2/C(=O)Nc3cc(Cl)ccc32)c1 [Compound 1-16, (E)-6-Chloro-3-(3-methanesulfonyl-benzylidene)-1,3-dihydro-indol-2-one] | 10.8 ± 3.72 µM

The next lines start with the values.

IC50 | Compound
16.9 ± 1.67 µM | O=C1Nc2ccc(F)c(F)c2/C1=C/c1ccccc1F [Compound 6-2, (Z)-4,5-Difluoro-3-(2-fluoro-benzylidene)-1,3-dihydro-indol-2-one]
10.6 ± 0.68 µM | O=C1Nc2cc(F)c(F)cc2/C1=C\c1ccc(C(F)(F)F)cc1 [Compound 7-7, (E)-5,6-Difluoro-3-(4-(trifluoromethyl)benzylidene)-1,3-dihydro-indol-2-one]
1.14 ± 0.19 µM | CN1C(=O)/C(=C/c2cccc(C(F)(F)F)c2)c2ccc(Cl)cc21 [Compound 8-5, (E)-6-Chloro-1-methyl-3-(3-trifluoromethyl-benzylidene)-1,3-dihydro-indol-2-one]
> 30 µM | O=C1Nc2ccc(F)c(F)c2/C1=C/c1ccc(C(F)(F)F)cc1 [Compound 6-7, (Z)-4,5-Difluoro-3-(4-trifluoromethyl-benzylidene)-1,3-dihydro-indol-2-one]
19.2 ± 3.25 µM | O=C1Nc2cc(F)c(F)cc2/C1=C\c1cccc(F)c1 [Compound 7-3, (E)-5,6-Difluoro-3-(3-fluorobenzylidene)-1,3-dihydro-indol-2-one]
20.3 ± 3.53 µM | O=C1Nc2ccc(Cl)cc2C1=Nc1cccc(C(F)(F)F)c1 [Compound 8-6, (E/Z) 5-Chloro-3-(3-trifluoromethyl-phenylimino)-1,3-dihydro-indol-2-one]
> 30 µM | O=C1Nc2cc(F)c(F)cc2/C1=C\c1ccccc1F [Compound 7-2, (E)-5,6-Difluoro-3-(2-fluoro-benzylidene)-1,3-dihydro-indol-2-one]
5.61 ± 0.26 µM | O=C1Nc2cc(F)c(F)cc2/C1=C\c1cccc(OC(F)(F)F)c1 [Compound 7-8, (E)-5,6-Difluoro-3-(3-trifluoromethoxyl-benzylidene)-1,3-dihydro-indol-2-one]
> 30 µM | O=C1Nc2cc(F)c(F)cc2/C1=C\c1ccccc1C(F)(F)F [Compound 7-5, (E)-5,6-Difluoro-3-(2-trifluoromethyl-benzylidene)-1,3-dihydro-indol-2-one]
31.1 ± 2.12 µM | O=C1Nc2ccc(F)c(F)c2/C1=C/c1ccccc1 [Compound 6-1, (Z)-3-Benzylidene-4,5-difluoro-1,3-dihydro-indol-2-one]
15.9 ± 1.14 µM | O=C1Nc2ccc(F)c(F)c2/C1=C/c1cccc(F)c1 [Compound 6-3, (Z)-4,5-Difluoro-3-(3-fluoro-benzylidene)-1,3-dihydro-indol-2-one]
